Results: patent US20140142343A1, “Novel Fragrance Compounds” (Givaudan Nederland Services B.V., priority 2006, published 2014)
Converted amounts (≈) assume the structure as drawn.

Legend:
[1] = tested on: Staphylococcus aureus ATCC 6538; experiment: Minimum Inhibitory Concentration (MIC); type: cell-based; settings: for MIC: ATCC6538, Staphylococcus aureus ATCC 6538, change in absorbance <0.2 A540; for activity against Staphylococcus aureus (in words): summary statement
Protocol: One property that characterises the effectiveness of a compound or composition to inhibit the growth of bacteria, is the minimum inhibitory concentration, or MIC, of the compound or composition. The MIC is defined as the minimum amount of a compound or composition (e.g. in ppm) at which little or no bacterial growth is observed. […] The minimum inhibitory concentration of a compound was determined by the following method. A culture of the test strains of bacteria Staphylococcus aureus ATCC 6538 (American Type Culture Collection, P.O. Box 1549, Manassas, Va. 20108, USA) was incubated for 16-24 hours, in a shaken flask at 37° C. The cultures was then diluted in sterile 0.1% TSB (Oxoid, Basingstoke, UK) to give a concentration of bacteria of approximately 10^6 colony forming units (cfu) per ml. Fragrance compounds were prepared in sterile TSB to give stock solutions with final concentrations of 40,000 ppm. The absorbance at 540 nm (hereinafter referred to for brevity and simplicity as “A540”) was used as a measure of turbidity resulting from bacterial growth. The MIC was taken as the concentration of ingredient required to inhibit growth so that the average change in absorbance during the incubation period was <0.2 A540.

Ant (Lasius niger) = experiment: Insect repellency against ants, half-treated vinyl tiles; type: in vivo
Protocol: (§1) Compound 1 was tested for insect repellency against mosquitoes and ants. In all cases, repellency is calculated with reference to an untreated surface having 0% repellency.
Ant test is completed with a simplified general purpose cleaner formulation: […]
This product is applied to the floor tiles (vinyl) at the rate of 20 g·m^−2.
Ant (Lasius niger) 300 mm square vinyl tiles half treated with 0.9 ml test material and left for 2 hours. Glass arena 250 mm square, 75 mm high and fluon coated, open to air. Arena illuminated from 1.0 m above by four 18 W fluorescent lamps. 50 black ants per arena counted every 5 minutes. Arena turned 180 degrees every 10 minutes. Any ants injured or escaping replaced. Mosquito (Aedes aegyptii) A perspex box approx 18 inch cube, with sleeved circular entry was used as the test cage. The box contained 5 day old, mated honey fed females. The area of arm to be tested was measured. The test material was applied from ethanol solution at a rate of 0.2 mg test material per square centimetre. A similar area of the other arm was used for the control. A pair of disposable gloves was worn on the hands throughout the test. In turn each arm was inserted into the cage for 30 seconds. This was repeated 3 times. The number of mosquitoes landing on the arm was recorded every five seconds. […]

[2] = tested on: Mosquito (Aedes aegyptii); experiment: Insect repellency against mosquitoes, treated arm in cage; type: in vivo
Protocol: as §1
Ant (Lasius niger) 300 mm square vinyl tiles half treated with 0.9 ml test material and left for 2 hours. Glass arena 250 mm square, 75 mm high and fluon coated, open to air. Arena illuminated from 1.0 m above by four 18 W fluorescent lamps. 50 black ants per arena counted every 5 minutes. Arena turned 180 degrees every 10 minutes. Any ants injured or escaping replaced. Mosquito (Aedes aegyptii) A perspex box approx 18 inch cube, with sleeved circular entry was used as the test cage. The box contained 5 day old, mated honey fed females. The area of arm to be tested was measured. The test material was applied from ethanol solution at a rate of 0.2 mg test material per square centimetre. A similar area of the other arm was used for the control. A pair of disposable gloves was worn on the hands throughout the test. In turn each arm was inserted into the cage for 30 seconds. This was repeated 3 times. The number of mosquitoes landing on the arm was recorded every five seconds. As penetration of the skin occurs within 5 seconds the arm was flicked at this frequency to dislodge the flies.

| Structure (SMILES) | MIC [1] [µg/mL] | activity against Staphylococcus aureus (in words) [1] | repellency against ants (Ant (Lasius niger); over first hour, wrt untreated surface, 1.0% in general purpose cleaner formulation) [%] | repellency properties against ants (in words) (Ant (Lasius niger); summary statement) | repellency against mosquitoes ([2]; after 10 minutes, wrt untreated surface, 0.2 mg test material per square centimetre) [%] | repellency properties against mosquitoes (in words) ([2]; summary statement) |
| --- | --- | --- | --- | --- | --- | --- |
| CC(C)(C)C1CCCC(CCC=O)C1 (stereo not shown) [Compound 1, 3-(3-tert-butylcyclohexyl)propanal] | 312 (≈ 1590 µM) | excellent activity against Staphylococcus aureus | 72 | excellent repellency properties | 100 | excellent repellency properties |
| CC(C)C1CCCC(C(C)CC=O)C1 (stereo not shown) [Compound 2, 3-(3-isopropylcyclohexyl)butanal] | 312 (≈ 1590 µM) | excellent activity against Staphylococcus aureus | – | – | – | – |
| CC(C=O)CC1CCCC(C)C1 (stereo not shown) [Compound 3, 2-methyl-3-(3-methylcyclohexyl)propanal] | 5000 (≈ 29700 µM) | – | – | – | – | – |
| CC1CCCC(CCC=O)C1 (stereo not shown) [Compound 4, 3-(3-methylcyclohexyl)propanal] | > 5000 | – | – | – | – | – |
